{
  "source": "patent US20250213593A1",
  "about": "“Use of Derivatives based on Sarsasapogenin Structure and Pharmaceutical Compositions thereof” (BEIJING PHYTOVENT PHARMACEUTICAL TECHNOLOGY CO., LTD., priority 2022, published 2025)",
  "key": {"[1]": {"system": "OCI-LY3 (human diffuse large B-cell lymphoma cells)", "assay": "Cell proliferation assay, OCI-LY3", "type": "cell-based", "settings": "Homo sapiens, OCI-Ly3, 72 h", "protocol": "• Experimental and analytical method: cells were inoculated into a 96-well cell culture plate with a lid at a maximum concentration of 10 μM for a test compound, and diluted in three folds to a series of test concentrations, and cells were incubated at 37° C., 5% CO2 for 72 h. The concentration of DMSO was 0.5%, 100 μl of medium was taken from each well. 100 μl of reagent (Celltitute Glo Assay Kit) was added to each well, and a flat plate was shaken on a plate shaker (protected from light) for 2 min. A culture plate was incubated (protected from light) at room temperature for 30 min. Chemiluminescence values were recorded by a multi-plate plate reader, and the experimental results were as follows:\nU937 (histiocytic lymphoma cells), OCI-LY3 (human diffuse large B-cell lymphoma cells), U2932 (human diffuse large B-cell lymphoma cells), and HT cells (human mixed lymphoma cells) were analyzed in the table for experimental analysis of cell proliferation."}, "[2]": {"system": "SOD^G93A transgenic mice", "assay": "Open field test of SOD^G93A mice", "settings": "40 mpk from Day 60, Week 14 to Week 19; vs model group", "experimental": "A mean moving speed was calculated in an open field, which is a behavioral analysis method to test motor dysfunction. The mice with motor dysfunction would have a significant reduction in mean moving speed. Our experiments were divided into three groups, i.e., a WT group, a model group and an administration group."}, "[3]": {"system": "APOE−/− mutant B6J mice", "assay": "Cardiovascular inflammation of APOE mutant mice fed with high-fat diets", "type": "in vivo, mouse", "settings": "oral gavage once every 2 days, high-fat diets 16 weeks", "from_the_text": "Experimental and analytical method: 6-week-old male APOE−/− mutant B6J mice and WT B6J mice were purchased and acclimatized in a feeding room for 2 weeks. When the mice were 8 weeks old, except for a Vehicle group and a WT group, the rest of the groups were given high-fat diets (Research Diets, D12492). When the mice were 9 weeks old, the Control group was given a 10% cyclodextrin solution, while the rest of the administration groups began to be grouped and administrated with different small molecule compounds (Embodiment 13B, Embodiment 33, Embodiment 36 and Embodiment 37) by oral gavage, at a frequency of once every 2 days. After being fed with high-fat diets for 16 weeks, the APOE mice were sacrificed and aortic arches were taken and dissected."}, "[4]": {"system": "C57BL/6 mice modeled with MPTP", "assay": "PD mouse model (MPTP)", "type": "in vivo", "settings": "80 mpk, 15 days; vs model group, T-test", "protocol": "• Experimental and analytical method: mice of C57BL/6 strain were used in this experiment, which were divided into 5 groups, including a normal control group (no injection of MPTP), a model group (modeling with MPTP), and treatment groups of three small molecules (Embodiment 13B, Embodiment 25A, and Embodiment 25B). The drug was administered at the same time as modeling was made. The modeling lasted for 5 days, followed by 30 mpk intraperitoneal injection till lasting for 15 days, and lasted for 15 days at 80 mpk. At the endpoint, the brain was soaked and fixed in PFA after cardiac perfusion, and transferred to sucrose dehydration after complete fixation, and OCT embedding and sectioning were used for TH staining after complete dehydration. The detection indicator was the number of TH-positive cells in the substantia nigra. The more positive cells, the better the protection effect of small molecules against MPTP damage. • Results: there were 12 mice in each group, and the statistical results were shown in FIG. 50, T-test, **: p<0.01, #: p<0.05."}, "[5]": {"system": "rats with ulcerative colitis induced by TNBS", "assay": "TNBS rats enteritis model", "type": "in vivo, rat", "settings": "80 mpk oral gavage once a day, 7 days", "protocol": "All rats except the normal control group were fasted for solids (not liquids) for 24 h. After being anesthetized with isoflurane, the rats were transrectally infused with a TNBS ethanol solution (18 mg TNBS/mouse) at 0.5 mL/mouse through a latex hose, the length of the hose into the rectum was about 8 cm, an anesthesia state was continued after the hose was withdrawn, and the rats were kept in an inclined state for 15 min. The rats in the normal control group were not stimulated with rectal cannula. After the animals were awake, they were randomly divided into groups, which then began to be administrated with drugs (marked as D1). The blank group and the model group were administrated with the same amount of vehicle by oral gavage once a day for 7 consecutive days (D1-D7). The animal's status and feces (loose stools or bloody stools) were observed every day. The body weights were monitored. On the next day after the last administration (D8), the animals were deeply anesthetized with CO2, sacrificed and dissected. The entire colon tissues were harvested. The colon content was washed with normal saline after dissection along the mesenteric side. The body weights were measured and the colon lengths were measured. A ulcer surface was measured by Image J software. The general conditions of the colons were observed and photographed. Some of diseased tissues were fixed with formalin, and subjected to histopathological observation by HE staining. • Results: (1) the effects on general conditions of TNBS colitis mice were shown in FIG. 46a: the rats had loose stool on the next day of TNBS modeling; and the modeled mice had symptoms of reduced diet, tiredness, emaciation, erect hair, and dull hair. The feces of some rats were improved in the later stage of administration, but some rats still maintained loose stool until the end of the experiment, and some rats had obvious abdominal distension in the later stage of the experiment."}, "[6]": {"system": "TDP43^A315T transgenic mice", "settings": "40 mpk from Day 60", "text": "Our experiments were divided into two groups, i.e., a model group and an administration group."}, "[7]": {"system": "ICR mice", "assay": "Sleep of mice at subthreshold hypnotic dosage of sodium pentobarbital", "type": "in vivo, mouse", "settings": "single oral gavage, high-, medium- and low-dosage; vs blank control", "protocol": "After adaptive feeding of mice, 50 qualified animals were selected according to their body weights and divided into 5 groups by Excel complete randomization: a blank control group, a positive control group (Diazepam), and high-, medium- and low-dosage groups of test product, with 10 animals in each group. Animals in each group should be administrated with drug solutions and vehicles. After 1 h of administration, the animals in each group were intraperitoneally injected with a maximum subthreshold dosage of sodium pentobarbital (firstly, a pre-experiment was conducted to determine a maximum subthreshold hypnotic dosage of sodium pentobarbital)."}},
  "data": [
    {"smiles": "C[C@H]1CC[C@@]2(OC1)O[C@H]1C[C@@H]3[C@H](CC[C@H]4[C@H]3CC[C@@H]3C[C@H](NC(=O)CC(=O)N5CCN(CCN(C)C)CC5)CC[C@@]34C)[C@H]1[C@@H]2C", "note": "[Embodiment 13b]", "values": [
      {"measurement": "IC50", "setting": "[1]", "result": 4.39, "unit": "µM"},
      {"measurement": "mean moving rate in open field", "setting": "[2]", "result": "much larger"},
      {"measurement": "inflammatory factors IL10, IL-1β and KC/GRO in aortic vascular epithelial tissue", "setting": "[3]", "result": "most significant"},
      {"measurement": "number of TH-positive cells in the substantia nigra", "setting": "[4]", "result": "statistically significant differences"},
      {"measurement": "colon ulcer area", "setting": "[5]", "result": "more significant"},
      {"measurement": "colon weight per unit length (colon weight/colon length)", "setting": "[5]", "result": "more significant"},
      {"measurement": "survival time (in words)", "setting": "[6]", "result": "could effectively prolong the survival time"},
      {"measurement": "start of significant body weight decrease", "setting": "[6]; model group Week 13", "result": 16, "unit": "Week"},
      {"measurement": "death median", "setting": "[6]; model group about Day 120", "result": 135, "unit": "days"},
      {"measurement": "all died", "setting": "[6]; model group about Day 140", "result": 150, "unit": "days"},
      {"measurement": "first deaths", "setting": "[6]; model group from Day 90", "result": "> 100", "unit": "days"},
      {"measurement": "sleep latency", "setting": "[7]", "result": "could shorten the sleep latency of the mice, which had a certain dosage-response relationship, but no statistically significant difference"},
      {"measurement": "sleep time", "setting": "[7]", "result": "could prolong the sleep time of the mice, but there was no statistically significant difference"}
    ]}
  ]
}
